Test results from patent publication US20120016009A1, “Optimized Methods For Delivery Of DSRNA Targeting The PCSK9 Gene” (priority 2008, published 2012).
In the oligonucleotide strings, read from the 5' end, every base follows the letter of its sugar. An asterisk marks phosphorothioate; unmarked linkages are phosphodiester. Other units and linkages are bracketed, terminal groups are in braces. A string of capitals states the bases alone. d = 2'-deoxy (DNA); m = 2'-O-methyl; r = 2'-OH (RNA); {P} = phosphate; f = 2'-fluoro

Assays:
PCSK9 mRNA [1] = assay: PCSK9 silencing in primary cynomolgus monkey hepatocytes (dilution series from 30 nM, PCSK9/GAPDH mRNA); type: cell-based
Experimental: Primary cynomolgus monkey hepatocytes (cryopreserved) were obtained from In vitro Technologies, Inc. (Baltimore, Md., USA, cat No M00305) and cultured in InVitroGRO CP Medium (cat No Z99029) at 37° C. in an atmosphere with 5% CO2 in a humidified incubator.
For transfection with siRNA, primary cynomolgus monkey cells were seeded on Collagen coated plates (Fisher Scientific, cat. No. 08-774-5) at a density of 3.5×10^4 cells/well in 96-well plates and transfected directly. Transfection of siRNA (eight 2-fold dilution series starting from 30 nM) in duplicates was carried out with lipofectamine 2000 (Invitrogen GmbH, Karlsruhe, Germany, cat. No. 11668-019) as described by the manufacturer.
16 hours after transfection medium was changed to fresh InVitroGRO CP Medium with Torpedo Antibiotic Mix (In vitro Technologies, Inc, cat. No Z99000) added.
24 hours after medium change primary cynomolgus monkey cells were lysed and PCSK9 mRNA levels were quantified with the Quantigene Explore Kit (Genosprectra, Dumbarton Circle Fremont, USA, cat. No. QG-000-02) according to the protocol. PCSK9 mRNA levels were normalized to GAPDH mRNA. Normalized PCSK9/GAPDH ratios were then compared to PCSK9/GAPDH ratio of lipofectamine 2000 only control.

PCSK9 = assay: Total serum cholesterol in rats after LNP01 formulated PCSK9 siRNA (duration of action); type: in vivo, rat; conditions: versus PBS or control siRNA
Experimental: Rats were treated via tail vein injection with 5 mg/kg of LNP01-10792 (Formulated ALDP-10792). Blood was drawn at the indicated time points (see Table 3) and the amount of total cholesterol compared to PBS treated animals was measured by standard means. Total cholesterol levels decreased at day two ˜60% and returned to baseline by day 28.
To test if acute silencing of the PCSK9 transcript by a PCSK9 siRNA (and subsequent PCSK9 protein down-regulation), would result in acutely lower total cholesterol levels, siRNA molecule AD-1a2 (AD-10792) was formulated in an LNP01 lipidoid formulation. Liposomal formulated siRNA duplex AD-1a2 (LNP01-1a2) was injected via tail vein in low volumes (˜0.2 ml for mouse and ˜1.0 ml for rats) at different doses into C57/BL6 mice or Sprague Dawley rats.
Down-modulation of total cholesterol in rats has been historically difficult as cholesterol levels remain unchanged even at high doses of HMG-CoA reductase inhibitors. […] Rats were dosed with a single injection of LNP01-a2 via tail vein at 1, 2.5 and 5 mg/kg. Liver tissue and blood were harvested 72 hours post-injection. […] The mRNA silencing was associate with an acute ˜50-60% decrease of serum total cholesterol (FIGS. 10A and 10B) lasting 10 days, with a gradual return to pre-dose levels by ˜3 weeks (FIG. 10B).
(§1) Phosphorothioate modifications at the 3′ ends of both sense and antisense strands of a dsRNA can protect against exonucleases. 2′OMe and 2′F modifications in both the sense and antisense strands of a dsRNA can protect against endonucleases. AD-1a2 (see Table 5b) contains 2′OMe modifications on both the sense and antisense strands. Experiments were performed to determine if the inherent stability (as measured by siRNA stability in human serum) or the degree or type of chemical modification (2′OMe versus 2′F or a mixture) was related to either the observed rat efficacy or the duration of silencing effects. Stability of siRNAs with the same AD-1a2 core sequence, but containing different chemical modifications were created and tested for activity in vitro in primary Cyno monkey hepatocytes. A series of these molecules that maintained similar activity as measured by in vitro IC50 values for PCSK9 silencing (Table 5b), were then tested for their stability against exo and endonuclease cleavage in human serum. Each duplex was incubated in human serum at 37° C. (a time course), and subjected to HPLC analysis. […] Sequences AD-1a3, AD-1a5, and AD-1a4, which were more heavily modified (see chemical modifications in Table 5) all had T ½'s greater than 24 hours. […] Blood was collected from animals at various days post-dose, and total cholesterol concentrations were measured. […]

[2] = system: primary human blood monocytes (hPBMC); assay: IFN-alpha induction in primary human blood monocytes (hPBMC); type: cell-based; conditions: for IFN-α Induction: first word of the cell IFN-α/TNF-α Induction (Yes/No); for IFN-alpha induction: human primary blood monocytes
Experimental: (§2) siRNAs were tested for activation of the immune system in primary human blood monocytes (hPBMC). […] However, chemically modified versions of this sequence (AD-1a2, AD-1a3, AD-1a5, and AD-1a4) as well as AD-2a1 were negative for both IFN-alpha and TNF-alpha induction in these same assays (see Table 5, and FIGS. 13A and 13B). Thus chemical modifications are capable of dampening both IFN-alpha and TNF-alpha responses to siRNA molecules.

[3] = system: primary human blood monocytes (hPBMC); assay: TNF-alpha induction in primary human blood monocytes (hPBMC); type: cell-based; conditions: for TNF-alpha induction: human primary blood monocytes; for TNF-α Induction: second word of the cell IFN-α/TNF-α Induction (Yes/No)
Experimental: as §2

PCSK9 mRNA [4] = assay: PCSK9 siRNA screening in HepG2 cells (lipofectamine 2000 transfection, PCSK9 mRNA by Quantigene, normalized to GAP-DH); type: cell-based, human; conditions: for Mean percent remaining mRNA transcript at siRNA concentration/in cell type 3 nM/HepG2: 3 nM siRNA; for Mean percent remaining mRNA transcript at siRNA concentration/in cell type 30 nM/HepG2: 30 nM siRNA
Method in brief: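 HepG2 cells, grown in MEM with 10% fetal calf serum, antibiotics, non-essential amino acids and sodium pyruvate at 37° C. and 5% CO2, were plated at 2.0×10^4 cells/well in 96-well plates and transfected directly with siRNA using lipofectamine 2000. After 24 hours, cells were lysed and PCSK9 mRNA was measured by Quantigene and normalized to GAP-DH mRNA.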

PCSK9 mRNA [5] = assay: In vitro screening of modified dsRNAs targeted to PCSK9 (Table 2b; cell type not given); type: cell-based; conditions: 30 nM siRNA
Method in brief: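 siRNA at 30 nM (single-dose screen) was transfected with lipofectamine 2000 into cells seeded at 2.0×10^4/well. After 24 h, cells were lysed and PCSK9 mRNA measured by Quantigene, normalized to GAPDH (n=8). Values are % remaining PCSK9 mRNA relative to cells given an unrelated control siRNA.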

[6] = IFN-alpha activation in mice, siRNA formulated into liposomes; type: in vivo, mouse
[7] = siRNA stability in human serum at 37° C., HPLC analysis; type: in vitro ADME
Experimental: as §1

[8] = PCSK9 silencing in primary cynomolgus monkey hepatocytes, approximate IC50, read-out: Primary Cynomolgus Monkey Hepatocytes ~IC50
[9] = primary cynomolgus monkey hepatocytes, read-out: IC50 in Cynomolgous monkey Hepatocyte [nM]s

AD-1a3: modified dsRNA, AD-1a2 core sequence, Alt 2′ F, 2′ OMe both strands; SEQ ID NO:1509/1510 (chain 1 GCCUGGAGUUUAUUCGGAATT; chain 2 {P}-mUfUmCfCmGfAmAfUmAfAmAfCmUfCmCfAmGfGmCdT*dT; chain 1: sugars from the 5' end fmfmfmfmfmfmfmfmfmfdd, backbone not given here)
IC50 (PCSK9 mRNA [1]; [8]): 0.07 to 0.2 nM
decrease of total cholesterol day 2 post-dose (PCSK9): ~60%
IFN-α Induction [2]: No/No
IFN-alpha induction [2]: negative
TNF-alpha induction [3]: negative
TNF-α Induction [3]: No/No

AD-1a4: modified dsRNA, sense 2′ OMe, antisense 2′ F all Py, 5′ Phosphate; SEQ ID NO:1511/1512 (sense rGmCmCmUrGrGrArGmUmUmUrAmUmUmCrGrGrArAdT*dT; antisense {P}-fUfUfCfCrGrArAfUrArArAfCfUfCfCrArGrGfCdT*dT)
IC50 (PCSK9 mRNA [1]; [8]): 0.07 to 0.2 nM
decrease of total cholesterol day 2 post-dose (PCSK9): ~60%
IFN-α Induction [2]: No/No
IFN-alpha induction [2]: negative
TNF-alpha induction [3]: negative
TNF-α Induction [3]: No/No

AD-1a5: modified dsRNA, sense 2′ F, antisense 2′ F all Py, 5′ Phosphate; SEQ ID NO:1513/1514 (sense GCCUGGAGUUUAUUCGGAATT; antisense {P}-fUfUfCfCrGrArAfUrArArAfCfUfCfCrArGrGfCdT*dT; sense: chemistry not given here; sense strand 2'-F modified, exact pattern not fully given)
IC50 (PCSK9 mRNA [1]; [8]): 0.07 to 0.2 nM
decrease of total cholesterol day 2 post-dose (PCSK9): ~60%
IFN-α Induction [2]: No/No
IFN-alpha induction [2]: negative
TNF-alpha induction [3]: negative
TNF-α Induction [3]: No/No

AD-9314: unmodified parental PCSK9 siRNA, SEQ ID NO:1503/1504 (chain 1 rGrCrCrUrGrGrArGrUrUrUrArUrUrCrGrGrArAdT*dT; chain 2 rUrUrCrCrGrArArUrArArArCrUrCrCrArGrGrCdT*dT)
IC50 (PCSK9 mRNA [4]): 0.04 nM
Mean percent remaining mRNA transcript at siRNA concentration/in cell type 3 nM/HepG2 (PCSK9 mRNA [4]): 22%
Mean percent remaining mRNA transcript at siRNA concentration/in cell type 30 nM/HepG2 (PCSK9 mRNA [4]): 11%
IC50 (PCSK9 mRNA [1]; [8]): 0.07 to 0.2 nM
activity in vitro in primary monkey hepatocytes (PCSK9 mRNA [1]): active in vitro
Remaining mRNA in % of controls at siRNA conc. of 30 nM (PCSK9 mRNA [5]): 9%
IFN-α Induction [2]: Yes/Yes
IFN-alpha induction [2]: induced IFN-alpha
IFN-alpha induction ([2]; listed as AD-1a1): induce both IFN-alpha and TNF-alpha
TNF-alpha induction [3]: induced TNF-alpha
TNF-alpha induction ([3]; listed as AD-1a1): induce both IFN-alpha and TNF-alpha
TNF-α Induction [3]: Yes/Yes

AD-9680: dsRNA targeting the PCSK9 gene at 3530-3548; sense SEQ ID NO:1227, antisense SEQ ID NO:1228 (sense mUmUmCmUrArGrAmCmCmUrGmUmUmUmUrGmCmUmUdT*dT; antisense rArArGmCrArArArAmCrArGrGrUrCmUrArGrArAdT*dT)
IC50 (PCSK9 mRNA [4]): 0.1 nM
Mean percent remaining mRNA transcript at siRNA concentration/in cell type 3 nM/HepG2 (PCSK9 mRNA [4]): 22%
Mean percent remaining mRNA transcript at siRNA concentration/in cell type 30 nM/HepG2 (PCSK9 mRNA [4]): 12%
IC50 (PCSK9 mRNA [1]; [8]): 0.07 to 0.2 nM
IC50 (PCSK9 mRNA [1]; [9]): 0.1 nM
activity in vitro in primary monkey hepatocytes (PCSK9 mRNA [1]): highly active
IFN-α Induction [2]: No/No
IFN-alpha induction [2]: negative
TNF-alpha induction [3]: negative
TNF-α Induction [3]: No/No
IFN-alpha activation in mice [6]: neither AD-1a2, nor AD-2a1 activated IFN-alpha

AD-9736: PCSK9 siRNA which targets only human and monkey PCSK9 message; SEQ ID NO:1517/1518 (chain 1 AGGuGuAucuccuAGAcAcTsT; chain 2 GUGUCuAGGAGAuAcACCUTsT; as printed in the source, key not given here)
IC50 (PCSK9 mRNA [4]): 0.04 nM
Mean percent remaining mRNA transcript at siRNA concentration/in cell type 3 nM/HepG2 (PCSK9 mRNA [4]): 29%
Mean percent remaining mRNA transcript at siRNA concentration/in cell type 30 nM/HepG2 (PCSK9 mRNA [4]): 22%
IC50 (PCSK9 mRNA [1]; [8]): 0.1 to 0.3 nM
IC50 (PCSK9 mRNA [1]; [9]): 0.5 nM
IFN-α Induction [2]: No/No
TNF-α Induction [3]: No/No

AD-10792: 2′OMe modified dsRNA targeting PCSK9 at 1091-1109, SEQ ID NO:1305/1306 (chain 1 rGmCmCmUrGrGrArGmUmUmUrAmUmUmCrGrGrArAdT*dT; chain 2 rUrUrCrCrGrArAmUrArArArCrUrCmCrArGrGrCdT*dT)
IC50 (PCSK9 mRNA [4]): 0.1 nM
IC50 (PCSK9 mRNA [1]; [8]): 0.07 to 0.2 nM
IC50 (PCSK9 mRNA [1]; [9]): 0.1 nM
activity in vitro in primary monkey hepatocytes (PCSK9 mRNA [1]): active in vitro
Remaining mRNA in % of controls at siRNA conc. of 30 nM (PCSK9 mRNA [5]): 15%
decrease of total cholesterol day 2 post-dose (PCSK9): ~60%
T ½ in pooled human serum [7]: ~7 h
IFN-α Induction [2]: No/No
IFN-alpha induction ([2]; listed as AD-1a2): negative
TNF-alpha induction ([3]; listed as AD-1a2): negative
TNF-α Induction [3]: No/No
IFN-alpha activation in mice [6]: neither AD-1a2, nor AD-2a1 activated IFN-alpha

AD-ctrl: control siRNA targeting luciferase; SEQ ID NO:1519/1520 (chain 1 mCmUmUrAmCrGmCmUrGrArGmUrAmCmUmUmCrGrAdT*dT; chain 2 rUrCrGrArArGmUrArCrUmCrArGrCrGmUrArArGdT*dT) [reference compound]
IFN-α Induction [2]: No/No
TNF-α Induction [3]: No/No
